Experimental findings from patent US10065941B2, “Aminotriazine derivative and pharmaceutical composition comprising the same” (Shionogi & Co., Ltd., priority 2013, dated 2018) are described below.

The target in this assay is human P2X3 receptor (Homo sapiens (Human), UniProt P56373). Kind of assay: Evaluation of human P2X3 receptor inhibitory activity (Test Example 1). Format: cell-based. To be noted: C6BU-1 cell transfected with human P2X3 receptor gene, FLIPR 384. In outline: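 C6BU-1 cells stably expressing human P2X3, loaded with 4 μM Fluo-3-AM 1 h at 37 °C, preincubated 5 min with test compound, then stimulated with 150 nM ATP solution (stock, pre-dispense) and monitored by FLIPR for 4 min. IC50 derived from maximum fluorescence ratio (post-ATP peak over baseline).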
Sequence of human P2X3 receptor (P56373 whole entry): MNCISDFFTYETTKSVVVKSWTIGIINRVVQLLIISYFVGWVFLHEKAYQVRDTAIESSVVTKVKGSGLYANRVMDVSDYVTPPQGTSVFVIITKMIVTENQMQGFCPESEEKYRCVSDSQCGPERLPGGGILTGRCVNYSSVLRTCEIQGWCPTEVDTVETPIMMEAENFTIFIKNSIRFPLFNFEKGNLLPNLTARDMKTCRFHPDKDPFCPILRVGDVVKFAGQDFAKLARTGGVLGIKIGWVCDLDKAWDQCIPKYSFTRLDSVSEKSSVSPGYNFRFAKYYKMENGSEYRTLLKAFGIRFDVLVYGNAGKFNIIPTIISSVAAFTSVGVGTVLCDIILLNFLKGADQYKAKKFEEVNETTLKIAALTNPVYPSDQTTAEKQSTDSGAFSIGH
`COC(=O)[C@@H](C)Cn1c(=O)[nH]/c(=N\c2ccc(Oc3ccnc(Cl)c3)cc2)n(Cc2ccc(Cl)cc2)c1=O` [Compound R-086] came in with an IC50 of 7 nM.
The result for `COC(=O)C(C)(C)Cn1c(=O)[nH]/c(=N\c2ccc(Oc3ccnc(Cl)c3)cc2)n(Cc2ccc(Cl)cc2)c1=O` [Compound R-087] reads 12 nM; that for `C[C@@H](Cn1c(=O)[nH]/c(=N\c2ccc(Oc3ccnc(Cl)c3)cc2)n(Cc2ccc(Cl)cc2)c1=O)C(=O)O` [Compound R-088], 6 nM; that for `CC(C)(Cn1c(=O)[nH]/c(=N\c2ccc(Oc3ccnc(Cl)c3)cc2)n(Cc2ccc(Cl)cc2)c1=O)C(=O)O` [Compound R-089], 7 nM.
Regarding `COC(=O)[C@@H](C)Cn1c(=O)[nH]/c(=N\c2ccc(O[C@H](C)C(F)(F)F)c(F)c2)n(Cc2ccc(Cl)cc2)c1=O` [Compound R-090], half-maximal inhibition (IC50) required 70 nM.
The same measure for `COC(=O)C(C)(C)Cn1c(=O)[nH]/c(=N\c2ccc(O[C@H](C)C(F)(F)F)c(F)c2)n(Cc2ccc(Cl)cc2)c1=O` [Compound R-091]: 108 nM.
On to `CC(C)(Cn1c(=O)[nH]/c(=N\c2ccc(Oc3cc(Cl)ncn3)cc2)n(Cc2ccc(Cl)cc2)c1=O)C(=O)O` [Compound R-092], for which half-maximal inhibition (IC50) required 10 nM.
`C[C@@H](Cn1c(=O)[nH]/c(=N\c2ccc(O[C@H](C)C(F)(F)F)c(F)c2)n(Cc2ccc(Cl)cc2)c1=O)C(=O)O` [Compound R-093] showed an IC50 of 13 nM.
The same measure for `C[C@@H](Cn1c(=O)[nH]/c(=N\c2ccc(O[C@H](C)C(F)(F)F)c(O[C@H](C)C(F)(F)F)c2)n(Cc2ccc(Cl)cc2)c1=O)C(=O)O` [Compound R-094]: 29 nM; for `C[C@@H](Oc1ccc(/N=c2\[nH]c(=O)n(CC(C)(C)C(=O)O)c(=O)n2Cc2ccc(Cl)cc2)cc1F)C(F)(F)F` [Compound R-095]: 45 nM.
The result for `C[C@@H](Oc1ccc(/N=c2\[nH]c(=O)n(CC(C)(C)C(=O)O)c(=O)n2Cc2ccc(Cl)cc2)cc1O[C@H](C)C(F)(F)F)C(F)(F)F` [Compound R-096] reads 156 nM.
Compound `COC(=O)[C@@H](C)Cn1c(=O)[nH]/c(=N\c2ccc(O[C@H](C)C(F)(F)F)c(C)c2)n(Cc2ccc(Cl)cc2)c1=O` [Compound R-097] returned an IC50 of 212 nM.
As for `Cc1cc(/N=c2\[nH]c(=O)n(C[C@H](C)C(=O)O)c(=O)n2Cc2ccc(Cl)cc2)ccc1O[C@H](C)C(F)(F)F` [Compound R-098], the midpoint of inhibition, the IC50, lay at 80 nM.
The same measure for `COC(=O)[C@@H](C)Cn1c(=O)[nH]/c(=N\c2ccc(Oc3ccnc(C#N)c3)cc2)n(Cc2ccc(Cl)cc2)c1=O` [Compound R-099]: 4 nM.
In turn, `COC(=O)C(C)(C)Cn1c(=O)[nH]/c(=N\c2ccc(Oc3ccnc(C#N)c3)cc2)n(Cc2ccc(Cl)cc2)c1=O` [Compound R-100] had an IC50 of 6 nM.
Compound `COC(=O)[C@@H](C)Cn1c(=O)[nH]/c(=N\c2ccc(N3CCOCC3)c(C)c2)n(Cc2ccc(Cl)cc2)c1=O` [Compound R-101] showed an IC50 of 201 nM.
Compound `COC(=O)C(C)(C)Cn1c(=O)[nH]/c(=N\c2ccc(N3CCOCC3)c(C)c2)n(Cc2ccc(Cl)cc2)c1=O` [Compound R-102] yielded an IC50 of 100 nM.
For the compound `COC(=O)C(C)(C)Cn1c(=O)[nH]/c(=N\c2ccc(Oc3ccnc(C(=O)O)c3)cc2)n(Cc2ccc(Cl)cc2)c1=O` [Compound R-105], 7 nM corresponded to half-maximal inhibition (IC50).
`COC(=O)[C@@H](C)Cn1c(=O)[nH]/c(=N\c2ccc(N3CCOCC3)c(F)c2)n(Cc2ccc(Cl)cc2)c1=O` [Compound R-106] came in with a half-inhibitory concentration (IC50) of 379 nM.
The same measure for `COC(=O)C(C)(C)Cn1c(=O)[nH]/c(=N\c2ccc(N3CCOCC3)c(F)c2)n(Cc2ccc(Cl)cc2)c1=O` [Compound R-107]: 217 nM; for `CC(C)(Cn1c(=O)[nH]/c(=N\c2ccc(Oc3ccnc(C#N)c3)cc2)n(Cc2ccc(Cl)cc2)c1=O)C(=O)O` [Compound R-108]: 8 nM; for `COC(=O)[C@@H](C)Cn1c(=O)[nH]/c(=N\c2ccc(Oc3cnccn3)c(C)c2)n(Cc2ccc(Cl)cc2)c1=O` [Compound R-111]: 5 nM.
`COC(=O)[C@@H](C)Cn1c(=O)[nH]/c(=N\c2ccc(Oc3noc(C)n3)cc2)n(Cc2ccc(Cl)cc2)c1=O` [Compound R-112] displayed an IC50 of 17 nM.
The result for `COC(=O)C(C)(C)Cn1c(=O)[nH]/c(=N\c2ccc(Oc3noc(C)n3)cc2)n(Cc2ccc(Cl)cc2)c1=O` [Compound R-113] reads 13 nM.
Regarding `Cc1nc(Oc2ccc(/N=c3\[nH]c(=O)n(C[C@H](C)C(=O)O)c(=O)n3Cc3ccc(Cl)cc3)cc2)no1` [Compound R-114], the IC50 is 39 nM.
In turn, `Cc1nc(Oc2ccc(/N=c3\[nH]c(=O)n(CC(C)(C)C(=O)O)c(=O)n3Cc3ccc(Cl)cc3)cc2)no1` [Compound R-115] registered an IC50 of 65 nM.
Compound `Cc1cc(/N=c2\[nH]c(=O)n(C[C@H](C)C(=O)O)c(=O)n2Cc2ccc(Cl)cc2)ccc1Oc1cncc(F)c1` [Compound R-116] gave an IC50 of 5 nM.
`C[C@@H](Cn1c(=O)[nH]/c(=N\c2ccc(Oc3cncc(F)c3)c(F)c2)n(Cc2ccc(Cl)cc2)c1=O)C(=O)O` [Compound R-117]: the IC50 was determined as 6 nM.
The compound `Cc1cc(/N=c2\[nH]c(=O)n(CC(C)(C)C(=O)O)c(=O)n2Cc2ccc(Cl)cc2)ccc1Oc1cncc(F)c1` [Compound R-118] gave an IC50 of 5 nM.
`COC(=O)[C@@H](C)Cn1c(=O)[nH]/c(=N\c2ccc(Oc3cccnn3)cc2)n(Cc2ccc(Cl)cc2)c1=O` [Compound R-119] displayed an IC50 of 5 nM.
`C[C@@H](Cn1c(=O)[nH]/c(=N\c2ccc(Oc3cccnn3)cc2)n(Cc2ccc(Cl)cc2)c1=O)C(=O)O` [Compound R-120] displayed an IC50 of 8 nM.
`CC(C)(Cn1c(=O)[nH]/c(=N\c2ccc(Oc3cncc(F)c3)c(F)c2)n(Cc2ccc(Cl)cc2)c1=O)C(=O)O` [Compound R-121]: it took 5 nM to reach half-maximal inhibition (IC50).
The same measure for `COC(=O)[C@H](C)[C@H](C)n1c(=O)[nH]/c(=N\c2ccc(Oc3cnccn3)c(F)c2)n(Cc2ccc(Cl)cc2)c1=O` [Compound R-122]: 13 nM; for `C[C@@H](Cn1c(=O)[nH]/c(=N\c2ccc(Oc3ccnc(C#N)c3)cc2)n(Cc2ccc(Cl)cc2)c1=O)C(=O)O` [Compound R-123]: 5 nM.
`C[C@@H](Cn1c(=O)[nH]/c(=N\c2ccc(Oc3cc(Cl)ncn3)cc2)n(Cc2ccc(Cl)cc2)c1=O)C(=O)O` [Compound R-124] showed an IC50 of 9 nM.
Consider `C[C@@H](C(=O)O)[C@H](C)n1c(=O)[nH]/c(=N\c2ccc(Oc3cnccn3)c(F)c2)n(Cc2ccc(Cl)cc2)c1=O` [Compound R-125], for which the IC50 was 7 nM.
Compound `CC(C)(Cn1c(=O)[nH]/c(=N\c2ccc(Oc3cc(O)nc(F)c3)cc2)n(Cc2ccc(Cl)cc2)c1=O)C(=O)O` [Compound R-126] yielded a concentration for half-maximal inhibition (IC50) of 10 nM.
`CCc1[nH]c2ccc(/N=c3\[nH]c(=O)n([C@@H](C)[C@@H](C)C(=O)OC)c(=O)n3Cc3ccc(Cl)cc3)cc2c1C` [Compound R-127] yielded a half-inhibitory concentration (IC50) of 90 nM.
Consider `CCc1[nH]c2ccc(/N=c3\[nH]c(=O)n([C@@H](C)[C@@H](C)C(=O)O)c(=O)n3Cc3ccc(Cl)cc3)cc2c1C` [Compound R-128], for which the IC50 is 11 nM.
With `COC(=O)C(C)(C)Cn1c(=O)[nH]/c(=N\c2ccc(Oc3cnccn3)c(C)c2)n(Cc2ccc(Cl)cc2)c1=O` [Compound R-129], the IC50 was 7 nM.
`Cc1cc(/N=c2\[nH]c(=O)n(C[C@H](C)C(=O)O)c(=O)n2Cc2ccc(Cl)cc2)ccc1Oc1cnccn1` [Compound R-130] registered an IC50 of 9 nM.
For `Cc1cc(/N=c2\[nH]c(=O)n(CC(C)(C)C(=O)O)c(=O)n2Cc2ccc(Cl)cc2)ccc1Oc1cnccn1` [Compound R-131], the IC50 stood at 9 nM.
The compound `COC(=O)[C@@H](C)Cn1c(=O)[nH]/c(=N\c2ccc(Oc3ncc(C)s3)cc2)n(Cc2ccc(Cl)cc2)c1=O` [Compound R-132] had a half-inhibitory concentration (IC50) of 10 nM.
With `Cc1cnc(Oc2ccc(/N=c3\[nH]c(=O)n(C[C@H](C)C(=O)O)c(=O)n3Cc3ccc(Cl)cc3)cc2)s1` [Compound R-133], the midpoint of inhibition, the IC50, lay at 6 nM.
On to `COC(=O)[C@@H](C)Cn1c(=O)[nH]/c(=N\c2ccc(Oc3ncns3)cc2)n(Cc2ccc(Cl)cc2)c1=O` [Compound R-134], for which inhibition was half-maximal at 5 nM (IC50).
Turning to `COC(=O)[C@@H](C)Cn1c(=O)[nH]/c(=N\c2ccc(Oc3nc(C)ns3)cc2)n(Cc2ccc(Cl)cc2)c1=O` [Compound R-135], the midpoint of inhibition, the IC50, lay at 5 nM.
As for `COC(=O)C(C)(C)Cn1c(=O)[nH]/c(=N\c2ccc(Oc3ncns3)cc2)n(Cc2ccc(Cl)cc2)c1=O` [Compound R-136], it took 6 nM to reach half-maximal inhibition (IC50).
`COC(=O)C(C)(C)Cn1c(=O)[nH]/c(=N\c2ccc(Oc3nc(C)ns3)cc2)n(Cc2ccc(Cl)cc2)c1=O` [Compound R-137]: the IC50 worked out at 6 nM.
The result for `COC(=O)[C@@H](C)Cn1c(=O)[nH]/c(=N\c2ccc(N3CCCCC3)c(C)c2)n(Cc2ccc(Cl)cc2)c1=O` [Compound R-138] reads 78 nM; that for `COC(=O)C(C)(C)Cn1c(=O)[nH]/c(=N\c2ccc(N3CCCCC3)c(C)c2)n(Cc2ccc(Cl)cc2)c1=O` [Compound R-139], 119 nM; that for `COC(=O)[C@@H](C)Cn1c(=O)[nH]/c(=N\c2ccc(N3CCCCC3)c(F)c2)n(Cc2ccc(Cl)cc2)c1=O` [Compound R-140], 37 nM.
The result for `COC(=O)C(C)(C)Cn1c(=O)[nH]/c(=N\c2ccc(N3CCCCC3)c(F)c2)n(Cc2ccc(Cl)cc2)c1=O` [Compound R-141] reads 47 nM; that for `Cc1cc(/N=c2\[nH]c(=O)n(C[C@H](C)C(=O)O)c(=O)n2Cc2ccc(Cl)cc2)ccc1N1CCCCC1` [Compound R-142], 69 nM.
The result for `Cc1cc(/N=c2\[nH]c(=O)n(CC(C)(C)C(=O)O)c(=O)n2Cc2ccc(Cl)cc2)ccc1N1CCCCC1` [Compound R-143] reads 97 nM; that for `C[C@@H](Cn1c(=O)[nH]/c(=N\c2ccc(Oc3nc4ccccc4o3)cc2)n(Cc2ccc(Cl)cc2)c1=O)C(=O)O` [Compound R-144], 5 nM.

Usually IC50 stands for the midpoint of a concentration-inhibition curve. Lower therefore signals greater potency in that assay.
